Source: PubChem BioAssay (NCI)
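Results reflect a 48-hour exposure of cells in 96-well plates to compound at five concentrations. At the TGI there is no net growth.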

What was measured:
Assay in all cases: NCI tumour cell line growth inhibition, 48 h
MDA-MB-435 = tested on: MDA-MB-435
BT-549 breast = tested on: BT-549 breast
HOP-62 NSCLC = tested on: HOP-62 NSCLC
IGROV1 ovarian = tested on: IGROV1 ovarian
HT29 colon = tested on: HT29 colon
NCI/ADR-RES ovarian = tested on: NCI/ADR-RES ovarian
UACC-62 melanoma = tested on: UACC-62 melanoma
HOP-92 NSCLC = tested on: HOP-92 NSCLC
K-562 leukemia = tested on: K-562 leukemia
CAKI-1 renal = tested on: CAKI-1 renal
OVCAR-5 ovarian = tested on: OVCAR-5 ovarian
SF-268 CNS = tested on: SF-268 CNS
PC-3 prostate = tested on: PC-3 prostate
HS 578T breast = tested on: HS 578T breast
HCT-116 colon = tested on: HCT-116 colon
OVCAR-3 ovarian = tested on: OVCAR-3 ovarian
M14 melanoma = tested on: M14 melanoma
SR leukemia = tested on: SR leukemia
SK-MEL-28 melanoma = tested on: SK-MEL-28 melanoma
OVCAR-4 ovarian = tested on: OVCAR-4 ovarian
HCT-15 colon = tested on: HCT-15 colon
OVCAR-8 ovarian = tested on: OVCAR-8 ovarian
SN12C renal = tested on: SN12C renal
NCI-H23 lung = tested on: NCI-H23 lung
UACC-257 melanoma = tested on: UACC-257 melanoma
SK-MEL-5 melanoma = tested on: SK-MEL-5 melanoma
NCI-H460 lung = tested on: NCI-H460 lung
TK-10 renal = tested on: TK-10 renal
EKVX NSCLC = tested on: EKVX NSCLC
NCI-H522 lung = tested on: NCI-H522 lung
MDA-N = tested on: MDA-N
SF-295 CNS = tested on: SF-295 CNS
LOX IMVI melanoma = tested on: LOX IMVI melanoma
MDA-MB-231 breast = tested on: MDA-MB-231 breast
MALME-3M melanoma = tested on: MALME-3M melanoma
SNB-19 CNS = tested on: SNB-19 CNS
MOLT-4 leukemia = tested on: MOLT-4 leukemia
SK-MEL-2 melanoma = tested on: SK-MEL-2 melanoma
NCI-H226 lung = tested on: NCI-H226 lung
786-0 renal = tested on: 786-0 renal
T-47D breast = tested on: T-47D breast
U251 CNS = tested on: U251 CNS
ACHN renal = tested on: ACHN renal
KM12 colon = tested on: KM12 colon
A549 NSCLC = tested on: A549 NSCLC
SW-620 colon = tested on: SW-620 colon
UO-31 renal = tested on: UO-31 renal
RXF 393 renal = tested on: RXF 393 renal
A498 renal = tested on: A498 renal
DU-145 prostate = tested on: DU-145 prostate

Measured: TGI

CC(CCC(=O)O)(c1ccc(O)cc1)c1ccc(O)cc1
> 100 µM: MDA-MB-435 | BT-549 breast | HOP-62 NSCLC | IGROV1 ovarian | HT29 colon | NCI/ADR-RES ovarian | UACC-62 melanoma | HOP-92 NSCLC | K-562 leukemia | CAKI-1 renal | OVCAR-5 ovarian | SF-268 CNS | PC-3 prostate | HS 578T breast | HCT-116 colon | OVCAR-3 ovarian | M14 melanoma | SR leukemia | SK-MEL-28 melanoma | OVCAR-4 ovarian | HCT-15 colon | OVCAR-8 ovarian | SN12C renal | NCI-H23 lung | UACC-257 melanoma | SK-MEL-5 melanoma | NCI-H460 lung | TK-10 renal | EKVX NSCLC | NCI-H522 lung | MDA-N | SF-295 CNS | LOX IMVI melanoma | MDA-MB-231 breast | MALME-3M melanoma | SNB-19 CNS | MOLT-4 leukemia | SK-MEL-2 melanoma | NCI-H226 lung | 786-0 renal | T-47D breast | U251 CNS | ACHN renal | KM12 colon | A549 NSCLC | SW-620 colon | UO-31 renal | RXF 393 renal | A498 renal | DU-145 prostate
